Experimental findings from patent publication US20230095520A1, “PHARMACEUTICAL COMPOSITION FOR PREVENTING OR TREATING CANCER COMPRISING AZOLE DERIVATIVES OR PHARMACEUTICALLY ACCEPTABLE SALT THEREOF” (Yungjin Pharm. Co., Ltd., priority 2020, published 2023) are described below.

In data set [1] the test system is MOLM-13-GFP human cells. In words: MOLM-13 orthotopic transplantation animal model. The data set is classed as in vivo. The conditions noted are these: NSG mouse, tail vein, 1 or 2 mg/kg (2D on/5D off) or 2 mg/kg BIW, 3 to 4 weeks, versus control group. The protocol:
MOLM-13 cells showing cancer cell inhibitory effect were selected, and Compound 121 was tested as follows using an orthotopic transplantation model.
The animal model used for efficacy evaluation is an NSG (Jackson lab, #005557, USA) mouse lacking the IL-2 receptor gamma gene, in which the immune activity of T cells, B cells, and NK cells is suppressed, and the efficacy was evaluated in an orthotopic transplantation model of MOLM-13-GFP human cells. For the induction method, an orthotopic transplantation model was induced by injecting the cells in an amount of 5×10^5 cells/200 ul/mouse into the tail vein route. Four test groups were G1 excipient control group vehicle (saline), G2 No. 121 1 mg/kg (2D on/5D off), G3 No. 121 2 mg/kg (2D on/ 5D off), and G4 No. 121 2 mg/kg (BIW), and 5 animals per group were set. From the day after cell injection, the tail vein administration of Compound 121 was started at each dose and regimen for 3 to 4 weeks.

Data set [2] addresses T1, Recombinant purified human CDK7 (Homo sapiens, UniProt P50613).
T1 construct: purchased ThermoFisher PV3868
The data set can be described thus: CDK7 activity inhibition, ADP-Glo kinase assay. The class given is biochemical. The conditions noted are these: ATP 90 μM, MBP substrate, 2 hours 30° C. Summed up:
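Human recombinant CDK7 (50 ng per reaction) in 40 mM Tris-Cl pH 7.5, 20 mM MgCl2, 0.1 mg/ml BSA, 50 μM DTT, with 1% DMSO. The reaction used 90 μM ATP and 0.2 μg/μl MBP substrate for 2 h at 30 °C. ADP formed was quantified by ADP-Glo luminescence to derive inhibition.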
A general note: In ADP-Glo the light output rises with the ADP produced.

The test system of data set [3] is MV-4-11 cells. The data set can be described thus: MV-4-11 cell proliferation inhibition (CCK-8). The class given is cell-based. The note with it: Homo sapiens, MV4-11, MV-4-11 proliferation, 72 hours. In short, it runs like this:
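The FLT3-mutant AML line MV-4-11 was exposed to compound for 72 h. Antiproliferative effect was read with the tetrazolium-based CCK-8 method.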

The test system of data set [4] is HeLa. In words: Cancer cell proliferation GI50 (CCK-8). The class given is cell-based. The note with it: Homo sapiens, cervical cancer, 72 hours. The protocol: (§1) In this example, in order to confirm the proliferation inhibitory effect on various cancer cells, Compound 121 was tested as follows.
(§2) The cells were cultured with a culture medium shown in Table 9 below at 37° C. in a humidified condition in the presence of 5% CO2. Each cell cultured in a 96-well cell culture plate was treated with the compound of the present invention and cultured for 72 hours.

Data set [5] deals with TOM-1. The data set can be described thus: Cancer cell proliferation GI50 (CCK-8). The class given is cell-based. The note with it: TOM-1, B cell acute lymphocytic leukemia, 72 hours. The protocol:
as §1, §2

Data set [6] relates to MOLM/CYT. In words: Cancer cell proliferation GI50 (CCK-8). The class given is cell-based. The note with it: acute myeloid leukemia, 72 hours. The protocol: as §1, §2
In data set [7] the test system is MV-4-11. The data set can be described thus: Cancer cell proliferation GI50 (CCK-8). The note with it: Homo sapiens, MV4-11, MV-4-11, acute myeloid leukemia, 72 hours. The data set is classed as cell-based. The method, then: as §1, §2
Data set [8] relates to T47D. In words: Cancer cell proliferation GI50 (CCK-8). The data set is classed as cell-based. The note with it: Homo sapiens, breast cancer, 72 hours. The method, then:
as §1, §2

Data set [9] has as its system THP/DEC-2. The data set can be described thus: Cancer cell proliferation GI50 (CCK-8). The note with it: THP/DEC-2, acute myeloid leukemia, 72 hours. The class given is cell-based. The protocol: as §1, §2
The subject of data set [10] is SKOV-3. The data set can be described thus: Cancer cell proliferation GI50 (CCK-8). The data set is classed as cell-based. The note with it: Homo sapiens, SK-OV-3, SKOV-3, ovarian cancer, 72 hours. The protocol: as §1, §2
Data set [11] has as its system K562. The data set can be described thus: Cancer cell proliferation GI50 (CCK-8). The data set is classed as cell-based. The note with it: Homo sapiens, K562, chronic myeloid leukemia (CML), 72 hours. The protocol:
as §1, §2

For data set [12], the system named is JURKAT. In words: Cancer cell proliferation GI50 (CCK-8). The data set is classed as cell-based. The conditions noted are these: Homo sapiens, T cell acute lymphocytic leukemia, 72 hours. The protocol:
as §1, §2

Data set [13] concerns SK-BR-3. The data set can be described thus: Cancer cell proliferation GI50 (CCK-8). The data set is classed as cell-based. The conditions noted are these: Homo sapiens, SK-BR-3, breast cancer, 72 hours. The protocol:
as §1, §2

Data set [14] deals with MOLM-14. In words: Cancer cell proliferation GI50 (CCK-8). The data set is classed as cell-based. The note with it: Homo sapiens, MOLM-14, acute myeloid leukemia, 72 hours. The protocol: as §1, §2
The subject of data set [15] is KU-812. In words: Cancer cell proliferation GI50 (CCK-8). The class given is cell-based. The conditions noted are these: Homo sapiens, KU812, KU-812, chronic myeloid leukemia, 72 hours. The method, then:
as §1, §2

For data set [16], the system named is MOLM-13. The data set can be described thus: Cancer cell proliferation GI50 (CCK-8). The class given is cell-based. The conditions noted are these: Homo sapiens, MOLM-13, acute myeloid leukemia (AML), 72 hours. The method, then:
as §1, §2

The test system of data set [17] is OVCAR-3. In words: Cancer cell proliferation GI50 (CCK-8). The class given is cell-based. The conditions noted are these: Homo sapiens, OVCAR-3, ovarian cancer, 72 hours. The method, then:
as §1, §2

Data set [18] has as its system HCT116. In words: Cancer cell proliferation GI50 (CCK-8). The data set is classed as cell-based. The note with it: Homo sapiens, HCT-116, HCT116, large intestine cancer, 72 hours. The protocol: as §1, §2

T1 sequence (P50613 whole entry): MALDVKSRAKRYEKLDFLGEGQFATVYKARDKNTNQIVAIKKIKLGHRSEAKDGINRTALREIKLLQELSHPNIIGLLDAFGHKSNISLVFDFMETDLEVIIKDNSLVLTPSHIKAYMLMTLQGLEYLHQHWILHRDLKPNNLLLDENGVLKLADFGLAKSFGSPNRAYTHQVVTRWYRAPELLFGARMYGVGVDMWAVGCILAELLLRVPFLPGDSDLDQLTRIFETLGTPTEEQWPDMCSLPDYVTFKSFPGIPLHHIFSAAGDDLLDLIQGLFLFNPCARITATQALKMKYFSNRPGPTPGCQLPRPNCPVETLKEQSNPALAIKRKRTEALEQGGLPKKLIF
T1 sequence (P51946 whole entry partner): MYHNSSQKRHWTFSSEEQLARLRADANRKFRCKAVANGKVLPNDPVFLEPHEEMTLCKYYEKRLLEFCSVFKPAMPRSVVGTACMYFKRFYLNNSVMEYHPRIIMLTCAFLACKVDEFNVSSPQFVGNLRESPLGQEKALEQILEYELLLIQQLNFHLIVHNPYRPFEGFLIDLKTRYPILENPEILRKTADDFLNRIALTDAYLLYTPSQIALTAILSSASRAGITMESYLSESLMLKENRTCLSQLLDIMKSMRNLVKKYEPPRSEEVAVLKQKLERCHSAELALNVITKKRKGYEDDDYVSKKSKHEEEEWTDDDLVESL
T1 sequence (P51948 whole entry partner): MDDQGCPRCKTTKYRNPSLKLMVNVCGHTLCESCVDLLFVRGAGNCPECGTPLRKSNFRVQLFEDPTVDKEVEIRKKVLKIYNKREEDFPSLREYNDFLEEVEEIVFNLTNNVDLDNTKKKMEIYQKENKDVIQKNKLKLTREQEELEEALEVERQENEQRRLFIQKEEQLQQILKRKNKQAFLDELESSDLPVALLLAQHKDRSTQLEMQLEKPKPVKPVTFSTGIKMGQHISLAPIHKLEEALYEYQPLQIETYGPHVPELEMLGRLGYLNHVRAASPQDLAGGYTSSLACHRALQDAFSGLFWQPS

Broadly, the IC50 is the concentration at which inhibition is half-maximal. By GI50 is commonly meant the concentration giving 50% growth inhibition. A lower GI50 goes with greater sensitivity of the cells. As for `CCc1cnc(NC(=O)[C@@H](C)c2cccc(-c3cnc(NC(=O)/C=C/CN(C)C)c(C#N)c3)c2)s1` [Compound 121, (S,E)-N-(3-cyano-5-(3-(1-((5-ethylthiazol-2-yl)amino)-1-oxopropan-2-yl)phenyl)pyridin-2-yl)-4-(dimethylamino)but-2-enamide], the survival rate result in data set [1] (FIG. 11) was “increase in the survival rate”. For the same compound, the “change in body weight” value in [1] (FIG. 12) is listed as “constant amount of body weight gain”. Moreover, the IC50 in data set [2] amounted to 4.2 nM; in data set [3] it was 4.3 nM. The concentration for 50% growth inhibition (GI50) in [4] is 10.8 nM; in [5] it was 4.36 nM; in data set [6], 0.94 nM; in data set [7], 11.8 nM; in data set [8], 19.3 nM; in [9] it was 3.6 nM. The GI50 in data set [10] came out at 9.6 nM; in [11] it was 18.9 nM; in [12], 17.5 nM; in [13], 10.6 nM; in data set [14], 2.77 nM; in data set [15], 3.64 nM. For the same compound, the GI50 in data set [16] is 19 nM; in data set [17] it was 4.8 nM; in [18], 4 nM.
